Among the data in PubChem BioAssay AID493119 (Broad Institute, 2011) are AC50 values, retold here.

For the assay, the system named is V. harveyi MM32 (LuxS-), AI-2-induced luminescence, 5 h. As to the kind of experiment: inhibitors of AI-2-induced luminescence in V. harveyi MM32, dose response, mechanism study for V. harveyi quorum sensing inhibitors, strain MM32 LuxS-null, dry powder, set 2 (AID 493119).

SMILES strings stand for the structures. “And” between values parts separate entries of the source, which are not always exact repeats. Equal entries are not always repeated.

For orientation: AC50 means the midpoint of the concentration-response curve, whichever way the signal moves. `CCc1ccc(S(=O)(=O)Nc2ccc(Br)cn2)cc1`: the concentration at half-maximal activity (AC50) was 2000 nM.

For `O=C1C=C/C(=C/Br)O1`, the AC50 is 3970 nM.

As to `Cc1cccc(NS(=O)(=O)c2ccc(Oc3ccccc3)cc2)n1`, the AC50 is 1290 nM and 1610 nM.

For `Cn1cnc(S(=O)(=O)Nc2ccc(OC(F)(F)F)cc2)c1`, the AC50 was 1880 nM and 2280 nM.

Regarding `C=Cn1c(C(=O)O)ccc1-c1ccc(CC)cc1`, the AC50 is 1720 nM and 1570 nM.

With `Cc1cccc(NC(=O)c2ccc(Oc3ccccc3)cc2)n1`, the AC50 was 6550 nM.

For the molecule `COc1cc(NC(=O)CN2C(=O)NC(c3ccccc3)(c3ccccc3)C2=O)cc(OC)c1`, the AC50 is 1170 nM and 1130 nM.
